These results are taken from patent US8119681B2, “2-[1-phenyl-5-hydroxy or methoxy-4alpha-methyl-hexahydrocyclopenta [ƒ]indazole-5-YL]ethyl phenyl derivatives as glucocorticoid receptor ligands” (Merck Sharp & Dohme Corp., priority 2006, dated 2012).

Test [1] concerns the target T1, human GR (Homo sapiens, UniProt P04150).
T1 sequence (P04150 1-777): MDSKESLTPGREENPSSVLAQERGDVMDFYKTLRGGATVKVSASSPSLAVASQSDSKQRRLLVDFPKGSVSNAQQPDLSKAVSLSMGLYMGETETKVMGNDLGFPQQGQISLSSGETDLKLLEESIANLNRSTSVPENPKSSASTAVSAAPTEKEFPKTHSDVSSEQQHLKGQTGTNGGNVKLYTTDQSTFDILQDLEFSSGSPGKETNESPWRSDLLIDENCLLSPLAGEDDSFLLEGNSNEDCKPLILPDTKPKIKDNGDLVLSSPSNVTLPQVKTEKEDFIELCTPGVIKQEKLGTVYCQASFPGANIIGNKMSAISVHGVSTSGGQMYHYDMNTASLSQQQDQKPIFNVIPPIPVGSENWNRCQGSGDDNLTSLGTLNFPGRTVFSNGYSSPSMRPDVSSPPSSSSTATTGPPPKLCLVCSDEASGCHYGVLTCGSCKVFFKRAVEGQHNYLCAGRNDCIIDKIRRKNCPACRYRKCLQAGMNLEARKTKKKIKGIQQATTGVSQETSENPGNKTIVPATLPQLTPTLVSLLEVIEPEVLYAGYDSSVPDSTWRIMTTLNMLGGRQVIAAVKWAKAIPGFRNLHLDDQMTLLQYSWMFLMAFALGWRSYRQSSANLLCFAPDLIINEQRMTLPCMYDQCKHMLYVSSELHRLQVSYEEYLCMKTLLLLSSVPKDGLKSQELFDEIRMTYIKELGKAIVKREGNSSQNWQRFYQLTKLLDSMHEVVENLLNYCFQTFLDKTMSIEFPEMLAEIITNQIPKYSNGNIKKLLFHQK
Nature of the test: Transrepression Assay (GITAR), TNFα-β-lactamase reporter gene in U937 cells. Type of test: cell-based. Set-up: U937 cells contain an endogenous glucocorticoid receptor (GR); endogenous in cells; host or cells: U937 cells stably transfected with the TNF-α promoter/β-lactamase reporter only. Particulars: for EC50: IP = inflection point; for GITAR > GRAMM % SEP: separation of GITAR Emax over GRAMMER Emax; for Emax: U-937. Summed up:
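Reporter readout used CCF2-AM loading for 70–90 min at room temperature after overnight (~18 h, 37 °C) PMA (5 ng/ml final) and LPS (100 ng/ml final) stimulation of compound-treated (30–45 min) TNFα-β-lactamase U937 cells expressing native GR. Activity was normalised to 100 nM dexamethasone repression.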

The target in test [2] is T1, human GR. Nature of the test: Trans-Activation Modulation of Glucocorticoid Receptor (GRAMMER), MMTV-LUC reporter gene. Type of test: cell-based. Also on record: endogenous in cells. The note with it: for Emax: A549; for EC50: A549 cells, IP = inflection point. The text has this: Trans-Activation Modulation of Glucocorticoid Receptor (GRAMMER)
This assay assesses the ability of test compounds to control transcription from the MMTV-LUC reporter gene in lung adenocarcinoma A549 cells or HeLa cells, a human […] cell line that naturally expresses the human GR. The assay measures induction of a modified MMTV LTR/promoter linked to the LUC reporter gene.
The routine transient assay consists of plating 7,000-25,000 cells/well of a white, clear-bottom 96-well plate. Alternatively, 384-well plates can be used at a cell concentration of 10,000/well. The media that the cells are plated in is “exponential growth medium” which consists of phenol red-free RPMI1640 containing 10% FBS, 4 mM L-glutamine, 20 mM HEPES, 10 ug/mL human insulin, and 20 ug/mL gentamicin. Incubator conditions are 37° C. and 5% CO2. The transfection is done in batch mode. The cells are trypsinized and counted to the right cell number in the proper amount of fresh media. It is then gently mixed with the FuGene6/DNA mix and plated onto the 96 or 384-well plate, all the wells receive 100 uL or 40 uL, respectively, of medium+lipid/DNA complex then incubated 37° C. overnight. The transfection cocktail consists of serum-free OptiMEM, FuGene6 reagent and DNA. The manufacturer's (Roche Biochemical) protocol for cocktail setup is as follows: The lipid to DNA ratio is approximately 2.5:1 and the incubation time is 20 min at room temperature. Sixteen to 24 hours after transfection, the cells are treated with dexamethasone to a final concentration of 10 nM as well as the compound of interest, such that final DMSO (vehicle) concentration is equal to or less than 1%. Each plate also contains samples that are treated with 10 nM dexamethasone alone, which is used as the 100% activity control. The cells are exposed to the compounds for 24 hours. After 24 hours, the cells are lysed by a Promega cell culture lysis buffer for approximately 30 min and then the luciferase activity in the extracts is assayed in the 96-well format luminometer. In 384-well format, Steady-Glo (Promega) or Steady-Lite (PerkinElmer) can be used by adding an equal volume of reagent to the media present in each well. Activity induced by 10 nM dexamethasone alone is set at 100% activity. Antagonist activity is calculated by determining the decrease in dexamethasone-induced activity in response to compound treatment relative to samples that were treated with dexamethasone alone. […] This transactivation assay can be performed in an agonist and antagonist mode to identify these different activities. […]

[3] abbreviates: Table 1, U937 cells, read-out: Transrepression U937 Cells GITAR IP.
The mark [4] stands for this setting: 100 nM dexamethasone = 100% activity, read-out: maximal activity in the transrepression assay.
Setting [5] is: Table 1, U937 cells, activity repressed by 100 nM dexamethasone = 100%, read-out: Transrepression U937 Cells GITAR Emax (%).
The mark [6] stands for this setting: read-out: Transactivation A549 Cells GRAMMER Emax (%).
[7] abbreviates: Table 1, read-out: Transactivation A549 Cells GRAMMER IP.
Setting [8] is: Table 2, U937 cells, read-out: Transactiviation U937 Cells GITAR IP.
Where [9] appears, read: Table 2, U937 cells, activity repressed by 100 nM dexamethasone = 100%, read-out: Transactiviation U937 Cells GITAR Emax (%).
[10] abbreviates: read-out: Transactiviation A549 Cells GRAMMER Emax (%).
[11] abbreviates: Table 2, read-out: Transactiviation A549 Cells GRAMMER IP.

Turning to `CC(O)(C(N)=O)c1ccccc1CC[C@]1(O)CCC2=Cc3c(cnn3-c3ccc(F)cc3)C[C@@]21C` (single isomer, unassigned) [Example 150], the values for the EC50 at human GR [1] (setting [3]) and on human GR [2] (setting [7]) were 210 nM and 264 nM, respectively. For the same compound, the “GITAR > GRAMM % SEP” value on human GR [1] (Table 1) turned out to be 29%. The results for the Emax at human GR [1] (setting [4]), on human GR [1] (setting [5]) and at human GR [2] (setting [6]) were 5 to 100%, 67% and 38%, respectively.

In the case of `CC(C(N)=O)c1ccccc1CC[C@]1(O)CCC2=Cc3c(cnn3-c3ccc(F)cc3)C[C@@]21C` (single isomer, unassigned) [Example 196], the EC50 at human GR [1] (setting [3]) turned out to be 287 nM; at human GR [2] (setting [7]), 253 nM. The “GITAR > GRAMM % SEP” value at human GR [1] (Table 1) came to 20%. In addition, the Emax was 5 to 100% on human GR [1] (setting [4]), 40% on human GR [1] (setting [5]) and 20% on human GR [2] (setting [6]).

As to `C[C@]12Cc3cnn(-c4ccc(F)cc4)c3C=C1CC[C@@]2(O)CCc1ccccc1C(F)C(N)=O` (single isomer, unassigned) [Example 198], the EC50 on human GR [1] (setting [3]) came out at 197 nM; on human GR [2] (setting [7]), 187 nM. Also, the “GITAR > GRAMM % SEP” value on human GR [1] (Table 1) was determined as 23%. The figures for the Emax on human GR [1] (setting [4]), at human GR [1] (setting [5]) and at human GR [2] (setting [6]) were 5 to 100%, 52% and 29%, respectively.

Regarding `C[C@]12Cc3cnn(-c4ccc(F)cc4)c3C=C1CC[C@@]2(O)CCc1ccccc1` [Example 2 WO 2004/075840 A2, reference compound], the EC50 on human GR [1] (setting [8]) was 204 nM; on human GR [2] (setting [11]) it was 230 nM. Besides, the “GITAR > GRAMM % SEP” value on human GR [1] (Table 2) was found to be 5%. Besides, the Emax worked out at 78% at human GR [1] (setting [9]) and 73% on human GR [2] (setting [10]).

Turning to `CCNC(=O)c1ccccc1CC[C@]1(O)CCC2=Cc3c(cnn3-c3ccc(F)cc3)C[C@@]21C` [Example 2, N-ethyl-2-{2-[(4αS,5R)-1-(4-fluorophenyl)-5-hydroxy-4α-methyl-1,4,4α,5,6,7-hexahydrocyclopenta[f]indazol-5-yl]ethyl}benzamide], the values for the EC50 at human GR [1] (setting [3]) and on human GR [2] (setting [7]) were 88 nM and 39 nM, respectively. In addition, the “GITAR > GRAMM % SEP” value at human GR [1] (Table 1) is recorded as 14%. For the same compound, the Emax is 5 to 100% at human GR [1] (setting [4]), 65% at human GR [1] (setting [5]) and 51% at human GR [2] (setting [6]).

With `C[C@]12Cc3cnn(-c4ccc(F)cc4)c3C=C1CC[C@@]2(O)CCc1ccccc1CNS(=O)(=O)C1CC1` [Example 5, N-(2-{2-[(4αS,5R)-1-(4-fluorophenyl)-5-hydroxy-4α-methyl-1,4,4α,5,6,7-hexahydrocyclopenta[f]indazol-5-yl]ethyl}benzyl)cyclopropanesulfonamide], the EC50 was found to be 179 nM on human GR [1] (setting [3]) and 138 nM on human GR [2] (setting [7]). The figures for the Emax at human GR [1] (setting [4]), at human GR [1] (setting [5]) and on human GR [2] (setting [6]) were 5 to 100%, 64% and 40%, respectively.

Take `C[C@]12Cc3cnn(-c4ccc(F)cc4)c3C=C1CC[C@@]2(O)CCc1ccccc1N1CCC1=O` [Example 11, 1-(2-{2-[(4αS,5R)-1-(4-fluorophenyl)-5-hydroxy-4α-methyl-1,4,4α,5,6,7-hexahydrocyclopenta[f]indazol-5-yl]ethyl}phenyl)azetidin-2-one]: the values for the EC50 at human GR [1] (setting [3]) and at human GR [2] (setting [7]) were 208 nM and 290 nM, respectively. For the same compound, the “GITAR > GRAMM % SEP” value on human GR [1] (Table 1) was determined as 17%. The Emax is 5 to 100% at human GR [1] (setting [4]), 57% on human GR [1] (setting [5]) and 39% on human GR [2] (setting [6]).

For the compound `CC(=O)Nc1ccccc1CC[C@]1(O)CCC2=Cc3c(cnn3-c3ccc(F)cc3)C[C@@]21C` [Example 14, N-(2-{2-[(4αS,5R)-1-(4-fluorophenyl)-5-hydroxy-4α-methyl-1,4,4α,5,6,7-hexahydrocyclopenta[f]indazol-5-yl]ethyl}phenyl)acetamide], the EC50 amounted to 193 nM on human GR [1] (setting [3]) and 175 nM on human GR [2] (setting [7]). Further, at human GR [1] (Table 1), the “GITAR > GRAMM % SEP” value is 23%. The Emax on human GR [1] (setting [4]) was 5 to 100%; on human GR [1] (setting [5]), 79%; at human GR [2] (setting [6]), 55%.

With `C[C@]12Cc3cnn(-c4ccc(F)cc4)c3C=C1CC[C@@]2(O)CCc1ccccc1NS(=O)(=O)C1CC1` [Example 15, N-(2-{2-[(4αS,5R)-1-(4-fluorophenyl)-5-hydroxy-4α-methyl-1,4,4α,5,6,7-hexahydrocyclopenta[f]indazol-5-yl]ethyl}phenyl)cyclopropanesulfonamide], the results for the EC50 at human GR [1] (setting [3]) and at human GR [2] (setting [7]) were 242 nM and 236 nM, respectively. Further, the “GITAR > GRAMM % SEP” value at human GR [1] (Table 1) worked out at 36%. The Emax is 5 to 100% at human GR [1] (setting [4]), 79% at human GR [1] (setting [5]) and 43% at human GR [2] (setting [6]).

Take `C[C@]12Cc3cnn(-c4ccc(F)cc4)c3C=C1CC[C@@]2(O)CCc1ccccc1S(C)(=O)=O` [Example 19, (4αS,5R)-1-(4-fluorophenyl)-4α-methyl-5-{2-[2-(methylsulfonyl)phenyl]ethyl}-1,4,4α,5,6,7-hexahydrocyclopenta[f]indazol-5-ol]: the EC50 on human GR [1] (setting [3]) is 187 nM; on human GR [2] (setting [7]), 127 nM. Also, the “GITAR > GRAMM % SEP” value at human GR [1] (Table 1) came to 33%. The Emax on human GR [1] (setting [4]) is 5 to 100%; at human GR [1] (setting [5]), 79%; on human GR [2] (setting [6]) it was 46%.

With `C[C@]12Cc3cnn(-c4ccc(F)cc4)c3C=C1CCC[C@@H]2[C@@H](O)Cc1ccccc1` [Example 22 WO 03/086294 A2, reference compound], the EC50 amounted to 327 nM at human GR [1] (setting [8]) and 109 nM on human GR [2] (setting [11]). Also, the “GITAR > GRAMM % SEP” value at human GR [1] (Table 2) is listed as −14%. Further, the Emax on human GR [1] (setting [9]) stood at 71%; at human GR [2] (setting [10]), 85%.

For `CNC(=O)Cc1ccccc1CC[C@]1(O)CCC2=Cc3c(cnn3-c3ccc(F)cc3)C[C@@]21C` [Example 23, 2-(2-{2-[(4αS,5R)-1-(4-fluorophenyl)-5-hydroxy-4α-methyl-1,4,4α,5,6,7-hexahydrocyclopenta[f]indazol-5-yl]ethyl}phenyl)-N-methylacetamide], the values for the EC50 on human GR [1] (setting [3]) and on human GR [2] (setting [7]) were 263 nM and 268 nM, respectively. Also, at human GR [1] (Table 1), the “GITAR > GRAMM % SEP” value turned out to be 37%. The figures for the Emax on human GR [1] (setting [4]), on human GR [1] (setting [5]) and at human GR [2] (setting [6]) were 5 to 100%, 73% and 36%, respectively.
